Laboratory results: ChEMBL document CHEMBL5291721, “A preclinical secondary pharmacology resource illuminates target-adverse drug reaction associations of marketed drugs” (Nat Commun, 2023)

Key:
[1] = molecular target: Neuronal acetylcholine receptor subunit alpha-4 (Homo sapiens, UniProt P43681)
[2] = molecular target: Beta-2 adrenergic receptor (Homo sapiens, UniProt P07550)
Histamine H2 receptor = Histamine H2 receptor (Homo sapiens, UniProt P25021); format: functional, cell-based
[3] = molecular target: Muscarinic acetylcholine receptor M3 (Homo sapiens, UniProt P20309)
Chain of Muscarinic acetylcholine receptor M3 (P20309 whole entry): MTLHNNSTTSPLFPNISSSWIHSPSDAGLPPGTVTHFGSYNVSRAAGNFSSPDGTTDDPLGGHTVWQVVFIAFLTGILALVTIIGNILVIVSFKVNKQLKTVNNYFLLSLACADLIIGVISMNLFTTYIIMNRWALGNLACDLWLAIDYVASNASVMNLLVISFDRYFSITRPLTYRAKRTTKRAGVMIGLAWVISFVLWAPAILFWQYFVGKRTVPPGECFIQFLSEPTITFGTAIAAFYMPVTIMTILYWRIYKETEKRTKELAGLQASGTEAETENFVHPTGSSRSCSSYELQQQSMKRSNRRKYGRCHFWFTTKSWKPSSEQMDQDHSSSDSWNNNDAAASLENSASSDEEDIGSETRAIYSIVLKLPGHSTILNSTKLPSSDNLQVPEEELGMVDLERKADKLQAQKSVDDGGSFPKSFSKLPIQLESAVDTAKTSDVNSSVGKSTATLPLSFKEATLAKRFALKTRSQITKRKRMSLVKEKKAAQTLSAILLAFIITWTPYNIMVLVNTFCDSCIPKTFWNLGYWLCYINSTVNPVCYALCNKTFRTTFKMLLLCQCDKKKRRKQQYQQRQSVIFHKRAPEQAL

D(1A) dopamine receptor = D(1A) dopamine receptor (Homo sapiens, UniProt P21728); format: functional, cell-based
Chain of D(1A) dopamine receptor (P21728 whole entry): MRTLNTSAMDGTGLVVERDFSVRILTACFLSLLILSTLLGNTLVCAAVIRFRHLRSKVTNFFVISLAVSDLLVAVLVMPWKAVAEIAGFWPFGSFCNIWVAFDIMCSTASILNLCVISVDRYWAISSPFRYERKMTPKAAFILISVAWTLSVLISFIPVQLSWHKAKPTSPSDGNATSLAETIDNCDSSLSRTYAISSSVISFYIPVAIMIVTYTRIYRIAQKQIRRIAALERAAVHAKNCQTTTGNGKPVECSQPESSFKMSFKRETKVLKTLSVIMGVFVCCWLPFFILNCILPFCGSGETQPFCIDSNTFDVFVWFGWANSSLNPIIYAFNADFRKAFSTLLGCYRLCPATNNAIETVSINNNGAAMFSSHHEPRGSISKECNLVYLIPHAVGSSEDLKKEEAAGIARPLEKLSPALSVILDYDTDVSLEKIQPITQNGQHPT

[4] = molecular target: T1, Muscarinic acetylcholine receptor M1 (Homo sapiens, UniProt P11229); format: functional
T1 sequence (P11229 whole entry): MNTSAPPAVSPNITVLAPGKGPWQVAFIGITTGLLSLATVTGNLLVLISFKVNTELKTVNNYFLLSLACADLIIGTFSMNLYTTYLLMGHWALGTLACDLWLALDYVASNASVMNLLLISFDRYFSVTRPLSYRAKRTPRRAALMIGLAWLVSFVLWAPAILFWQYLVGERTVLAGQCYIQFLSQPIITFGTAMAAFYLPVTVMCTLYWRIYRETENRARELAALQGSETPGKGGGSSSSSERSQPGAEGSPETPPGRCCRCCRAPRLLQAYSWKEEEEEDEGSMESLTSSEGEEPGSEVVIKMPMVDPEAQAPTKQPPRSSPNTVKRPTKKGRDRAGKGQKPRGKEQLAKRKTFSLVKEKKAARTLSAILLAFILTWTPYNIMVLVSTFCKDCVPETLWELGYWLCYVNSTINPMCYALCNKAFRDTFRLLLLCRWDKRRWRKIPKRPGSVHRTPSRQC

[5] = molecular target: T2, Gamma-aminobutyric acid receptor subunit alpha-1 (Rattus norvegicus, UniProt P62813)
T2 sequence (P62813 whole entry): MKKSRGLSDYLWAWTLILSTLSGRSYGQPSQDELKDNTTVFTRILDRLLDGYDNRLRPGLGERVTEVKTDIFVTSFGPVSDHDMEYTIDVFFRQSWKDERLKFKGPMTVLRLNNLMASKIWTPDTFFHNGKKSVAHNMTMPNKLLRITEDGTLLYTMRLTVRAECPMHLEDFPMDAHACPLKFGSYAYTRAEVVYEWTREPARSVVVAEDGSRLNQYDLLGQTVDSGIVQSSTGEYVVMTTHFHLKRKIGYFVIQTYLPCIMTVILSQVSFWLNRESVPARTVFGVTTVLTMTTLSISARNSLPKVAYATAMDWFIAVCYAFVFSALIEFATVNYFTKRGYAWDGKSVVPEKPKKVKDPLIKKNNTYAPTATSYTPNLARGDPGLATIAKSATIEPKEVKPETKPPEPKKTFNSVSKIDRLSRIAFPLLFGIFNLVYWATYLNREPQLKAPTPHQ

[6] = molecular target: T2, Gamma-aminobutyric acid receptor subunit alpha-1; format: functional
Cannabinoid receptor 1 = Cannabinoid receptor 1 (Homo sapiens, UniProt P21554); format: functional, cell-based
[7] = molecular target: T3, 5-hydroxytryptamine receptor 2B (Homo sapiens, UniProt P41595); format: functional, cell-based
T3 sequence (P41595 whole entry): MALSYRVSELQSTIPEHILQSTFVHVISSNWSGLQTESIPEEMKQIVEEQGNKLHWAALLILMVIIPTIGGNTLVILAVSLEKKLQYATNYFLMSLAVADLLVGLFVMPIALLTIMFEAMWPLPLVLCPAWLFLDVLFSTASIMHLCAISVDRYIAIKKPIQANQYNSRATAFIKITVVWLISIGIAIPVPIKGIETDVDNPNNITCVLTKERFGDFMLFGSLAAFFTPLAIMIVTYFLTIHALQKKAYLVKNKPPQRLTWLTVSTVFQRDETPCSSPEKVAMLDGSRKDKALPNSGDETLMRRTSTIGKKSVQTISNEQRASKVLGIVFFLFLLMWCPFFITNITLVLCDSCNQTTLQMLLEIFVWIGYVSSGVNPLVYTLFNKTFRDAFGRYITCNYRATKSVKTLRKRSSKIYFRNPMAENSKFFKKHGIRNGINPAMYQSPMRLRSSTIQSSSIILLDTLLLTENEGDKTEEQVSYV

Histamine H1 receptor = Histamine H1 receptor (Homo sapiens, UniProt P35367)
[8] = molecular target: T4, Prostaglandin G/H synthase 1 (Homo sapiens, UniProt P23219); format: functional
T4 sequence (P23219 whole entry): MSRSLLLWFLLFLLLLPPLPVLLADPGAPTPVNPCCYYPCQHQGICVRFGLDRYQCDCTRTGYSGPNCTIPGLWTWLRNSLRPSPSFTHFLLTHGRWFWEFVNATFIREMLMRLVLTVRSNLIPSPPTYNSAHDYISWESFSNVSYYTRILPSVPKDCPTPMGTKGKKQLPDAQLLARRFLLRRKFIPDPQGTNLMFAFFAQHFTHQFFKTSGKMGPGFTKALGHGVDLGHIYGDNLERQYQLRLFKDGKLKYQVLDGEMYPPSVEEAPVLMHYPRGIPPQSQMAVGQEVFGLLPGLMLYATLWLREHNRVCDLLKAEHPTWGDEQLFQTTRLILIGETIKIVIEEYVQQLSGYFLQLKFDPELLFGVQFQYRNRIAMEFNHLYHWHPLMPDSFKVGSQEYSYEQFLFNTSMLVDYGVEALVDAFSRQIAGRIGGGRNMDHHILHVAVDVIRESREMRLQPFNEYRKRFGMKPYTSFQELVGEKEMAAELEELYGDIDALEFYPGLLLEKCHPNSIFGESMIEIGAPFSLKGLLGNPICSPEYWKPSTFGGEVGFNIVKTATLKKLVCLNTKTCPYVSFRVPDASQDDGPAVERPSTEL

[9] = molecular target: T5, 5-hydroxytryptamine receptor 1A (Homo sapiens, UniProt P08908)
T5 sequence (P08908 whole entry): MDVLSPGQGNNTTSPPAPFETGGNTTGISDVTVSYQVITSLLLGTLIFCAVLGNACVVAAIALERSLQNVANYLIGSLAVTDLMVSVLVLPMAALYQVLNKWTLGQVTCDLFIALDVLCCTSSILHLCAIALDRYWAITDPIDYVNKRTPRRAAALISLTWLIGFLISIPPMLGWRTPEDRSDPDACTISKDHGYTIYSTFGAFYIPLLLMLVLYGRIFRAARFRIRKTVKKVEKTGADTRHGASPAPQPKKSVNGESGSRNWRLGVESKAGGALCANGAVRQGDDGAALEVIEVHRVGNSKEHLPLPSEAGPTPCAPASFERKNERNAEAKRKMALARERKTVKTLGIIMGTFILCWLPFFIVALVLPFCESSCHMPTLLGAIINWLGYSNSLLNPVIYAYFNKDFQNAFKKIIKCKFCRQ

Thromboxane A2 receptor = molecular target: T6, Thromboxane A2 receptor (Homo sapiens, UniProt P21731); format: functional, cell-based
T6 sequence (P21731 whole entry): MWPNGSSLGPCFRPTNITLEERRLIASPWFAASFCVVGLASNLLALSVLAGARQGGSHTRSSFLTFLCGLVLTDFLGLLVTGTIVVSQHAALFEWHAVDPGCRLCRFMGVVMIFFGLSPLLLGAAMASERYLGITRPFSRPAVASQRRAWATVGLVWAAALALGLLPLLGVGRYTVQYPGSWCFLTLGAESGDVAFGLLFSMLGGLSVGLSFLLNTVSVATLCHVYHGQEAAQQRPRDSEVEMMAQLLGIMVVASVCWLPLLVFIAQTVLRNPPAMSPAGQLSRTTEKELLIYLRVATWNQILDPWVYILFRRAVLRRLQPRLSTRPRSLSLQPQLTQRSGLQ

[10] = molecular target: T4, Prostaglandin G/H synthase 1; format: functional; remark: listed apart in the source
[11] = molecular target: cGMP-inhibited 3',5'-cyclic phosphodiesterase 3A (Homo sapiens, UniProt Q14432); format: functional
Histamine H3 receptor = Histamine H3 receptor (Homo sapiens, UniProt Q9Y5N1)
Chain of Histamine H3 receptor (Q9Y5N1 whole entry): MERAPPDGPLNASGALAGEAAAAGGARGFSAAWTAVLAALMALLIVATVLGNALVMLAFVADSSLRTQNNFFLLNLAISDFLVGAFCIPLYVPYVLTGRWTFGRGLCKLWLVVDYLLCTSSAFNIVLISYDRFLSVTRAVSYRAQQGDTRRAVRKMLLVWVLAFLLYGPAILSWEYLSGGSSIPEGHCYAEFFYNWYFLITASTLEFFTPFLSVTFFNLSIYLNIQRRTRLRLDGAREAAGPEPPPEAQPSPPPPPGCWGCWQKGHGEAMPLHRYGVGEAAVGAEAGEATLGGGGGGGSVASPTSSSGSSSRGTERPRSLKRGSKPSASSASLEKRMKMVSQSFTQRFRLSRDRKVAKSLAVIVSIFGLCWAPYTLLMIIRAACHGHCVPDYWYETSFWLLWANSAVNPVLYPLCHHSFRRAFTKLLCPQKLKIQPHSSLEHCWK

[12] = molecular target: Gamma-aminobutyric acid receptor subunit alpha-1/alpha-2/beta-2/gamma-2 (Homo sapiens, UniProt P14867+P18507+P47869+P47870); format: protein-complex assay
[13] = molecular target: T3, 5-hydroxytryptamine receptor 2B; format: functional, cell-based; remark: listed apart in the source
[14] = molecular target: T7, Alpha-2A adrenergic receptor (Homo sapiens, UniProt P08913)
T7 sequence (P08913 whole entry): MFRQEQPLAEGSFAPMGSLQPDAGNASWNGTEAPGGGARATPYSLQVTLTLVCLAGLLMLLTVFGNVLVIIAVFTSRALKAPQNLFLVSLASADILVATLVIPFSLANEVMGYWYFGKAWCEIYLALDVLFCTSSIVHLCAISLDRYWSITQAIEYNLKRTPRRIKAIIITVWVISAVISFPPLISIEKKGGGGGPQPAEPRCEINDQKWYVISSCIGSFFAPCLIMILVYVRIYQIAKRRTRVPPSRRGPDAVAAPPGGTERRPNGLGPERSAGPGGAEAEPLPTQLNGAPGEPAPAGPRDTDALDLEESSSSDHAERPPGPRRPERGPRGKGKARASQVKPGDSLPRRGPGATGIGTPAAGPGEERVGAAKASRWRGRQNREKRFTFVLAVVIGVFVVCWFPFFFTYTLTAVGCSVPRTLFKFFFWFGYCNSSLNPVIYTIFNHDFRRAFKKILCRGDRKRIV

Prothrombin = Prothrombin (Homo sapiens, UniProt P00734); format: functional
[15] = molecular target: 3',5'-cyclic-AMP phosphodiesterase 4A (Homo sapiens, UniProt P27815); format: functional
Chain of 3',5'-cyclic-AMP phosphodiesterase 4A (P27815 whole entry): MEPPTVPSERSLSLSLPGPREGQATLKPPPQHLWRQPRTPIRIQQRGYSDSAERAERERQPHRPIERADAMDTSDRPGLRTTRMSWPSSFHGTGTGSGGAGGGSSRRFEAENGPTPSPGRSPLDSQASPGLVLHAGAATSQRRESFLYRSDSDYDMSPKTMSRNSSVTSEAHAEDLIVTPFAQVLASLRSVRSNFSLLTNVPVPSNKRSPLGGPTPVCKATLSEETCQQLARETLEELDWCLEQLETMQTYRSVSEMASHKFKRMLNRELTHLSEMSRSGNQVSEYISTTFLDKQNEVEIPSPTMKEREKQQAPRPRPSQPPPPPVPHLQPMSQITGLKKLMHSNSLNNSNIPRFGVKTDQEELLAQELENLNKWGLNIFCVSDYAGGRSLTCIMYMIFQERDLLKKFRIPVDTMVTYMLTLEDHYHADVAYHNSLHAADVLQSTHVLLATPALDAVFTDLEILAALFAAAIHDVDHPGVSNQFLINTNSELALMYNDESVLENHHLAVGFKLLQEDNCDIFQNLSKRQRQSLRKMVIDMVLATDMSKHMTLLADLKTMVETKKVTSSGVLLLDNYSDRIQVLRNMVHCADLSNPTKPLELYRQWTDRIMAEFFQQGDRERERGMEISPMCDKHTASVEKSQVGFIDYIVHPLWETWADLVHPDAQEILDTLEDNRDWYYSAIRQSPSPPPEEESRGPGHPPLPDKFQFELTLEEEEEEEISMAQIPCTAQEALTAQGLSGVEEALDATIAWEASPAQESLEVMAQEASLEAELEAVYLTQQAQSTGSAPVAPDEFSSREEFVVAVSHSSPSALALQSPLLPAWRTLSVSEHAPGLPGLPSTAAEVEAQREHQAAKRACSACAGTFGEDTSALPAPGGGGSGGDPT

Measured: AC50
Also: assay procedure not described here.

Chain of Beta-2 adrenergic receptor (P07550 whole entry): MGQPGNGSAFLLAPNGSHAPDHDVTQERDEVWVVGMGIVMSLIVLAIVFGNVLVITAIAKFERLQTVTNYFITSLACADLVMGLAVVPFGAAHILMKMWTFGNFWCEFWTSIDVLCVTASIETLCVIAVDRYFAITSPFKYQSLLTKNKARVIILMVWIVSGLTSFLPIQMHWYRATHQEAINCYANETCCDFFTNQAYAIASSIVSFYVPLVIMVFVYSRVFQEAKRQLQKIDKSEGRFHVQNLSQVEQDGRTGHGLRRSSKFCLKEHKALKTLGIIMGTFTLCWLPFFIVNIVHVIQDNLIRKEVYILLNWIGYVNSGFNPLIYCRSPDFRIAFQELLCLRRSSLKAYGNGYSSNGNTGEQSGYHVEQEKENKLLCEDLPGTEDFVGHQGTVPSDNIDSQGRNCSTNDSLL
Chain of Neuronal acetylcholine receptor subunit alpha-4 (P43681 whole entry): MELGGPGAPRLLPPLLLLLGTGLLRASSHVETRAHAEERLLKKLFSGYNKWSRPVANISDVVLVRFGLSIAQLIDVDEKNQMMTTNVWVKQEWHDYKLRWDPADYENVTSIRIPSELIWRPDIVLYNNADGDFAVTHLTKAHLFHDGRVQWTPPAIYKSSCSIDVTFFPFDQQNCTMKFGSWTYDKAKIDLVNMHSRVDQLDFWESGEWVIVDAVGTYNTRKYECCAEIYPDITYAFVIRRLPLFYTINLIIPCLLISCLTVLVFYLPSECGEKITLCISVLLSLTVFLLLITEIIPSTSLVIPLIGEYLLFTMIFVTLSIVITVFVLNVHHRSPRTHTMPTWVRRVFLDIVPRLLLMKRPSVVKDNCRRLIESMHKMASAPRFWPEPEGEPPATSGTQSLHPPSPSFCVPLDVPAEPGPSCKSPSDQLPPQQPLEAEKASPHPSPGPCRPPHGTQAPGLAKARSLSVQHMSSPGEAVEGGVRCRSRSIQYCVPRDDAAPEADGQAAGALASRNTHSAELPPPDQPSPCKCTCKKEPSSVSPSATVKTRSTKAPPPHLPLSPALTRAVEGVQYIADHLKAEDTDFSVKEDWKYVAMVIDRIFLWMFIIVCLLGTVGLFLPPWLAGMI

CCN(CC)C(=O)C1(c2ccccc2)CC1CN (configuration not stated)
> 30 µM: [1] | [2] | Histamine H2 receptor | [3] | D(1A) dopamine receptor | [4] | [5] | [6] | Cannabinoid receptor 1 | [7] | Histamine H1 receptor

CN(C)C(=O)Oc1cccc([N+](C)(C)C)c1 [NEOSTIGMINE]
> 30 µM: [8] | [9] | Thromboxane A2 receptor | [10] | [11] | Histamine H3 receptor | [12] | [13] | [14] | Prothrombin | [15]
